Laboratory results taken from US12691070B2, “Cationic lipids and preparation method thereof” (RiboX Therapeutics HK Limited, priority 2023, dated 2026).

What was measured:
[1] = LNP size and polydispersity index (PDI) by dynamic light scattering; type: physicochemical; settings: for Size: in nm (unit assumed)
Procedure, shortened: (§1)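 Dynamic light scattering and zeta potential measurements were run on PBS-dialyzed LNPs, which had been formed by microfluidic mixing at 12 ml/min with final lipid at 1.5 mM to 6 mM. RNA content and percent encapsulation were determined by Ribogreen with and without Triton X-100.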

[2] = LNP zeta potential (Zetasizer); type: physicochemical
Procedure, shortened: as §1

[3] = RNA encapsulation efficacy by Quant-IT Ribogreen kit; type: physicochemical; settings: for Encapsulation Efficiency %: LNP with cirRNA (SEQ ID NO: 1); for Encapsulation Efficiency: LNP with mRNA (SEQ ID NO: 2)
Procedure, shortened: as §1

Hep G2 cells [4] = test: In vitro expression of firefly-luciferase, Hep G2; type: cell-based
Procedure, shortened: (§2)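 First, cells were dosed with RNA lipid nanoparticles encoding firefly luciferase (100 ng/mL). Second, at 72 h they were washed and lysed. Third, lysate luciferase activity was read with a luminometer.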

RAW 264.7 cells [5] = test: In vitro expression of firefly-luciferase, RAW 264.7; type: cell-based
Procedure, shortened: as §2

Hep G2 cells [6] = test: In vitro toxicity (CellTiter-Glo cell viability), Hep G2; type: cell-based;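 further: percent of untreated cells luminescence signal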
Procedure, shortened: (§3)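 Luminescent ATP read-out (CellTiter-Glo) gives the viability value, taken 72 h after cells were exposed to RNA-loaded lipid nanoparticles at 1 μg/mL.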

RAW 264.7 cells [7] = test: In vitro toxicity (CellTiter-Glo cell viability), RAW 264.7; type: cell-based;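 further: percent of untreated cells luminescence signal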
Procedure, shortened: as §3

BALB/C mice [8] = test: In vivo expression, whole-body luminescence (IVIS)
Procedure: 6-8 week old, female BALB/C mice were injected with 0.05 mg*kg-1 of RNA-LNPs encoding for firefly-luciferase by intravenous injection. At 6 hours post injection, animals were intraperitoneally injected with 15 mg/ml of Luciferin substrate and whole-body luminescence was determined by a bioluminescent in vivo imaging system (IVIS).

MCP-I = MCP-I cytokine elevation in serum; type: in vivo; settings: cirRNA (SEQ ID NO: 1) LNPs, mice
Procedure: 6-8 week old, female BALB/C mice were injected with 0.5 mg*kg-1 of RNA LNPs by intravenous injection. At 2 and 24 hours post injection, animals were bled and sera concentrations of MCP-I were determined by an immunoassay (Luminex).

[9] = tested on: Alanine Aminotransferase (ALT); test: Liver enzyme elevation in serum, ALT; type: in vivo; settings: cirRNA (SEQ ID NO: 1) LNPs, BALB/C mice, intravenous 0.5 MPK
Procedure: (§4) 6-8 week old, female BALB/C mice were injected with 0.5 mg*kg-1 of RNA LNPs by intravenous injection. At 2 and 24 hours post injection, animals were bled and sera concentrations of Alanine Aminotransferase (ALT) and Aspartate Aminotransferase (AST) were determined by a blood chemistry analyzer.

[10] = tested on: Aspartate Aminotransferase (AST); test: Liver enzyme elevation in serum, AST; type: in vivo; settings: cirRNA (SEQ ID NO: 1) LNPs, BALB/C mice, intravenous 0.5 MPK
Procedure: as §4

BALB/C mice [11] = test: Local tolerance determination by footpad injection; type: in vivo; settings: cirRNA (SEQ ID NO: 1) LNP, 0.175 mg*kg-1 subcutaneous into the footpad, 24 hours post minus prior
Procedure: 6-8 week old, female BALB/C mice were injected with 0.175 mg*kg-1 RNA LNPs by subcutaneous injection into the footpad. Prior to, and 24 hours post injections, injected footpad thickness was determined by a caliper.

[12] = cirRNA (SEQ ID NO: 1) LNPs, firefly-luciferase luminescence, Hep G2 cells
[13] = mRNA (SEQ ID NO: 2) LNP, 100 ng/mL, 72 hours post transfection, luciferase activity
[14] = cirRNA (SEQ ID NO: 1) LNPs, firefly-luciferase luminescence, RAW 264.7 cells
[15] = cirRNA (SEQ ID NO: 1) LNPs, Hep G2 cells
[16] = mRNA (SEQ ID NO: 2) LNP, 1 μg/mL, 72 hours post transfection
[17] = cirRNA (SEQ ID NO: 1) LNPs, RAW 264.7 cells
[18] = cirRNA (SEQ ID NO: 1) LNPs, BALB/C mice
[19] = mRNA (SEQ ID NO: 2) LNP, 0.05 mg*kg-1 intravenous, 6 hours post injection

SMILES | PDI ([1]; LNP with cirRNA (SEQ ID NO: 1)) | Size ([1]; LNP with cirRNA (SEQ ID NO: 1)) | PDI ([1]; LNP with mRNA (SEQ ID NO: 2)) | Size ([1]; LNP with mRNA (SEQ ID NO: 2)) | Zeta (mV) ([2]; LNP with cirRNA (SEQ ID NO: 1)) | Zeta (mV) ([2]; LNP with mRNA (SEQ ID NO: 2)) | Encapsulation Efficiency % [3] [%] | Encapsulation Efficiency [3] [%] | In vitro Expression HepG2 (Hep G2 cells [4]; [12]) | In vitro Expression HepG2 (Hep G2 cells [4]; [13]) | In vitro Expression RAW (RAW 264.7 cells [5]; [14]) | In vitro Expression RAW (RAW 264.7 cells [5]; [13]) | In vitro Viability HepG2 (Hep G2 cells [6]; [15]) [%] | In vitro Viability HepG2 (Hep G2 cells [6]; [16]) [%] | In vitro Viability RAW (RAW 264.7 cells [7]; [17]) [%] | In vitro Viability RAW (RAW 264.7 cells [7]; [16]) [%] | In vivo Expression (Whole Body) (BALB/C mice [8]; [18]) | In vivo Expression (Whole Body) (BALB/C mice [8]; [19]) | MCP-I in Sera 2 hours After 0.5 MPK Injection (MCP-I) [pg/mL] | MCP-I in Sera 24 hours After 0.5 MPK Injection (MCP-I) [pg/mL] | further results
CCCCCCCCC(CCCCCCCC)OC(=O)CCCCCCCN(CCCCCCCCOC(=O)C(CCCCCC)CCCCCCCC)CCCOC(=O)NCCN1CCCCCC1 (stereo not shown) [Lipid 354] | 0.1505 | 98.03 | 0.2144 | 128.6 | −2.263 | −0.3781 | 96 | 71.30 | 1.63E+06 | 7.47E+06 | 4.53E+05 | 1.10E+06 | 119 | 104 | 45 | 65 | 6.08E+08 | 7.55E+08 | 5469.33 | 1348.89 | ALT in Sera (IU/L) 2 hours After 0.5 MPK Injection [9]: 97.67 IU/L; ALT in Sera (IU/L) 24 hours After 0.5 MPK Injection [9]: 192.50 IU/L; AST in Sera (IU/L) 2 hours After 0.5 MPK Injection [10]: 287.33 IU/L; AST in Sera (IU/L) 24 hours After 0.5 MPK Injection [10]: 411.00 IU/L; Footpad Thickness (24 h−0 h, mm) (BALB/C mice [11]): 0.80 mm
CCCCCCCCCCC(CCCCCCCC)COC(=O)CCCCCN(CCCCCC(=O)OCC(CCCCCCCC)CCCCCCCCCC)CCCOC(=O)NCCN1CCCC1 (stereo not shown) [Lipid 369] | 0.1084 | 93.14 | 0.1166 | 120.9 | 4.427 | 10 | 97 | 92.99 | 1.04E+06 | 7.28E+07 | 1.84E+05 | 2.18E+07 | 78 | 94 | 61 | 90 | 1.30E+07 | 6.54E+08 | 6463.00 | 1338.00 | ALT in Sera (IU/L) 2 hours After 0.5 MPK Injection [9]: 158.00 IU/L; ALT in Sera (IU/L) 24 hours After 0.5 MPK Injection [9]: 121.00 IU/L; AST in Sera (IU/L) 2 hours After 0.5 MPK Injection [10]: 364.00 IU/L; AST in Sera (IU/L) 24 hours After 0.5 MPK Injection [10]: 290.00 IU/L; Footpad Thickness (24 h−0 h, mm) (BALB/C mice [11]): 0.57 mm
CCCCCCCCCCC(CCCCCCCC)COC(=O)CCCCCN(CCCCCC(=O)OCC(CCCCCCCC)CCCCCCCCCC)CCCOC(=O)NCCN1CCCCC1 (stereo not shown) [Lipid 370] | 0.08162 | 90.63 | 0.1494 | 112.8 | 0.1617 | 0.9875 | 97 | 93.87 | 2.65E+07 | 6.38E+07 | 1.98E+06 | 3.26E+07 | 93 | 94 | 96 | 107 | 3.68E+08 | 3.37E+08 | 4872.33 | 1652.33 | ALT in Sera (IU/L) 2 hours After 0.5 MPK Injection [9]: 102.00 IU/L; ALT in Sera (IU/L) 24 hours After 0.5 MPK Injection [9]: 123.00 IU/L; AST in Sera (IU/L) 2 hours After 0.5 MPK Injection [10]: 276.33 IU/L; AST in Sera (IU/L) 24 hours After 0.5 MPK Injection [10]: 413.33 IU/L; Footpad Thickness (24 h−0 h, mm) (BALB/C mice [11]): 0.50 mm
CCCCCCCCC(CCCCCC)C(=O)OCCCCCCCCN(CCCCCCCCOC(=O)C(CCCCCC)CCCCCCCC)CCCOC(=O)NCCN(C)C (stereo not shown) [Lipid 374] | 0.1683 | 105.2 | 0.06656 | 88.86 | 3.631 | 3.895 | 96 | 85.44 | 1.89E+07 | 3.70E+07 | 2.34E+06 | 5.38E+05 | 70 | 57 | 84 | 84 | 1.53E+08 | 4.07E+09 | 3843.00 | 1289.00 | ALT in Sera (IU/L) 2 hours After 0.5 MPK Injection [9]: 136.67 IU/L; ALT in Sera (IU/L) 24 hours After 0.5 MPK Injection [9]: 152.67 IU/L; AST in Sera (IU/L) 2 hours After 0.5 MPK Injection [10]: 435.67 IU/L; AST in Sera (IU/L) 24 hours After 0.5 MPK Injection [10]: 431.67 IU/L; Footpad Thickness (24 h−0 h, mm) (BALB/C mice [11]): 0.63 mm
